Results: patent publication US12240844B2 (Voronoi, Inc., priority 2019, dated 2025)

Legend:
Format in all cases: biochemical
LRRK2 (G2019S) = LRRK2 (G2019S) (Homo sapiens, UniProt Q5S007, G2019S); experiment: LRRK2 G2019S enzyme inhibition, ADP-Glo kinase assay; design: purchased SignalChem L10-12GG
Method in brief: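 Purified human LRRK2 G2019S (16 ng) with 25 μM ATP and 0.2 μg substrate, 2 h at 25° C in 40 mM Tris-HCl pH 7.4, 20 mM MgCl2, 0.5 mg/ml BSA, 50 μM DTT; compound at 12 final concentrations from 50 μM downward. ADP-Glo luminescence versus solvent control gave IC50 (nM).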

human GST-CLK1 (129-end) = target: T1, human GST-CLK1 (129-end) (Homo sapiens, UniProt P49759); experiment: GST-CLK1 enzyme inhibition, ADP-Glo kinase assay; details: ATP 10 uM
T1 construct: purified human GST-CLK1 (129-end, Signalchem) enzyme; GST; purchased Signalchem
T1 sequence (P49759 129-484 limits assumed): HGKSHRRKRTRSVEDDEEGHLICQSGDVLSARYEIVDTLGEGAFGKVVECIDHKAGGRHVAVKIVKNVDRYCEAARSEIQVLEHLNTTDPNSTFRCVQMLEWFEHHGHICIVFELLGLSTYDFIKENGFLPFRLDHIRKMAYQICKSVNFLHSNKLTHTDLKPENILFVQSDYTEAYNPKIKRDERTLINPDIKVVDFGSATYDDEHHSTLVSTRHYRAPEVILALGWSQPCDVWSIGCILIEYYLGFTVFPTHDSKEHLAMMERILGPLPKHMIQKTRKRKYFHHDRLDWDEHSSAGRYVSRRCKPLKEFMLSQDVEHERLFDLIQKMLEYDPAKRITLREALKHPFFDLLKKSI
Method in brief: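 GST-CLK1 (129-end, 3 ng) reacted with 10 uM ATP and substrate in 40 mM Tris-HCl pH 7.4, 20 mM MgCl2, 0.5 mg/mL BSA, 50 uM DTT, 1 h at 25° C. ADP-Glo luminescence normalised to solvent control; IC50 from triplicate data.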

LRRK2 = LRRK2 (Homo sapiens, UniProt Q5S007); experiment: LRRK2 enzyme inhibition, ADP-Glo kinase assay; design: purchased Invitrogen PR8604B
Chain of LRRK2 (Q5S007 970-2527 limits assumed): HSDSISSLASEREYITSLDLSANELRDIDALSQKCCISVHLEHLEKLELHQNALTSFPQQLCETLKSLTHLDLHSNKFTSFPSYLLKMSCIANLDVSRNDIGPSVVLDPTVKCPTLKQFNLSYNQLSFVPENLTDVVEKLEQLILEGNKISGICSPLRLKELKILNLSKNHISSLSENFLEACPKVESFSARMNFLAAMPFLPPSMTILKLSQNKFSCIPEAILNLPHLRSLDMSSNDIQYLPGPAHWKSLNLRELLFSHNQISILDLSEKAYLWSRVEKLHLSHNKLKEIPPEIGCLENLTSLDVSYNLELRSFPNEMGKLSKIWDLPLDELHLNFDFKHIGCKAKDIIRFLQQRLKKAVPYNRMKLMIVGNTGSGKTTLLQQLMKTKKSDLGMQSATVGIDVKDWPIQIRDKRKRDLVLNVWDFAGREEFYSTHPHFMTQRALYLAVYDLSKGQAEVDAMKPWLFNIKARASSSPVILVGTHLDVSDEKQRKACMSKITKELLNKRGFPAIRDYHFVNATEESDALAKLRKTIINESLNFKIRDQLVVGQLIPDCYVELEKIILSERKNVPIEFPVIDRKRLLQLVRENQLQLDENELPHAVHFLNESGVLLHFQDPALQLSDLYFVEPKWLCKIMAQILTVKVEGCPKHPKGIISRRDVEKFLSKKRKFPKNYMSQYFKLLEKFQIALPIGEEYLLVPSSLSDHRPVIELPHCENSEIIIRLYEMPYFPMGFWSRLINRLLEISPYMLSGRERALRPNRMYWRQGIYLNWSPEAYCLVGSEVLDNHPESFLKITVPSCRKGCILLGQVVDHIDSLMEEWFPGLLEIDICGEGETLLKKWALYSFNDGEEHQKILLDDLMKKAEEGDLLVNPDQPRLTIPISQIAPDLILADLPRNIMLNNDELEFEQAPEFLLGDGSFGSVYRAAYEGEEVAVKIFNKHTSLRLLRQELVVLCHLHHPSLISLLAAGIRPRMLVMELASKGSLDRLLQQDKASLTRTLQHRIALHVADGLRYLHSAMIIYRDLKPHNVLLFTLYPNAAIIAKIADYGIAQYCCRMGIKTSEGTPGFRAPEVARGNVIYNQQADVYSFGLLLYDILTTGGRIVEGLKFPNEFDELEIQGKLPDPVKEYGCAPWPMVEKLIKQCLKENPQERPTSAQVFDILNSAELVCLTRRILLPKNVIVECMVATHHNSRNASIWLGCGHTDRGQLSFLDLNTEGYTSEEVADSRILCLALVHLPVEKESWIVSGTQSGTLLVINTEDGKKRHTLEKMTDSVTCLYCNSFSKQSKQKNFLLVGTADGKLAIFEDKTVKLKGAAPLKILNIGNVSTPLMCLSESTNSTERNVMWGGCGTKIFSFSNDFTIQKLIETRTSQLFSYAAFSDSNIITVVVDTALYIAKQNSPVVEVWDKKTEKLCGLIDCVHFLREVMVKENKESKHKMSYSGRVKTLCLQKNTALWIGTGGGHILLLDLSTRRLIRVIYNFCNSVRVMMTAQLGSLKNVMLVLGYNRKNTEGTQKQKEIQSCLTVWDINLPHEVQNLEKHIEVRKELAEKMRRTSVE
Method in brief: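 Purified human LRRK2 (25 ng) in 40 mM Tris-HCl pH7.4, 20 mM MgCl2, 0.5 mg/ml BSA, 50 μM DTT with 10 μM ATP and substrate ([…]), 2 h at 25° C. Final compound 50 to 0.000001024 μM, 12-point dilution. ADP-Glo luminescence vs solvent control; IC50 (nM).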

[1] = target: T2, human GST-DYRK1A (full length) (Homo sapiens, UniProt Q13627); experiment: GST-DYRK1A enzyme inhibition, ADP-Glo kinase assay; details: read-out: DYRK1 IC50
T2 construct: purified human GST-DYRK1A (full length, Thermo scientifics) enzyme; GST; purchased Thermo scientifics
Method in brief: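 Full-length human GST-DYRK1A (10 ng) incubated with 10 uM ATP and specific substrate for 1 h at 25° C in 40 mM Tris-HCl pH 7.4, 20 mM MgCl2, 0.5 mg/mL BSA, 50 uM DTT. ADP formation read by ADP-Glo luminescence; IC50 (nM) versus solvent control, triplicate.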

Chain of LRRK2 (G2019S) (Q5S007 970-2527 G2019S limits assumed): as the sequence (Q5S007 970-2527 limits assumed) above, with G1050S counted along it

| Structure (SMILES) | IC50 (LRRK2 (G2019S)) [nM] | IC50 (human GST-CLK1 (129-end)) [nM] | IC50 (LRRK2) [nM] | IC50 [1] [nM] |
| --- | --- | --- | --- | --- |
| CCNc1cc(Nc2ccc(S(C)(=O)=O)cc2OC)nc2[nH]cc(C(F)(F)F)c12 [Example 180, N^4-ethyl-N^6-(2-methoxy-4-(methylsulfonyl)phenyl)-3-(trifluoromethyl)-1H-pyrrolo[2,3-b]pyridine-4,6-diamine] | 301 to 1000 | 301 to 1000 | 301 to 1000 | 301 to 1000 |
| COCCNc1cc(Nc2ccc(C(=O)N3CCOCC3)c3c2OCCO3)nc2[nH]cc(C#N)c12 [Example 109, 4-((2-methoxyethyl)amino)-6-((8-(morpholine-4-carbonyl)-2,3-dihydrobenzo[b] [1,4]dioxin-5-yl)amino)-1H-pyrrolo[2,3-b]pyridine-3-carbonitrile] | < 100 | < 100 | < 100 | < 100 |
| COc1cc(S(C)(=O)=O)ccc1Nc1cc(NC2CCCCC2)c2c(C(F)(F)F)c[nH]c2n1 [Example 182, N^4-cyclohexyl-N^6-(2-methoxy-4-(methylsulfonyl)phenyl)-3-(trifluoromethyl)-1H-pyrrolo[2,3-b]pyridine-4,6-diamine] | 301 to 1000 | 301 to 1000 | 301 to 1000 | 301 to 1000 |
| COc1cc(S(C)(=O)=O)ccc1Nc1cc(C2CC2)c2c(C#N)c[nH]c2n1 [Example 229, 4-cyclopropyl-6-((2-methoxy-4-(methylsulfonyl)phenyl)amino)-1H-pyrrolo[2,3-b]pyridine-3-carbonitrile] | 301 to 1000 | 301 to 1000 | 101 to 300 | 301 to 1000 |
| CCCNc1cc(Nc2ccc(C(=O)N3CCC(N4CCOCC4)CC3)c3c2OCCO3)nc2[nH]cc(C#N)c12 [Example 114, 6-((8-(4-morpholinopiperidine-1-carbonyl)-2,3-dihydrobenzo [b] [1,4]dioxin-5-yl)amino)-4-(propylamino)-1H-pyrrolo[2,3-b]pyridine-3-carbonitrile] | < 100 | < 100 | < 100 | < 100 |
| CNc1cc(Nc2ccc(S(C)(=O)=O)cc2OC)nc2[nH]cc(C(F)(F)F)c12 [Example 178, N^6-(2-methoxy-4-(methylsulfonyl)phenyl)-N^4-methyl-3-(trifluoromethyl)-1H-pyrrolo[2,3-b]pyridine-4,6-diamine] | 301 to 1000 | 301 to 1000 | 301 to 1000 | < 100 |
| CCNc1cc(Nc2ccc(C(=O)N3CCC(N4CCOCC4)CC3)c3c2OCCO3)nc2[nH]cc(C#N)c12 [Example 113, 4-(ethylamino)-6-((8-(4-morpholinopiperidine-1-carbonyl)-2,3-dihydrobenzo [b] [1,4]dioxin-5-yl)amino)-1H-pyrrolo[2,3-b]pyridine-3-carbonitrile] | < 100 | < 100 | < 100 | 301 to 1000 |
| CNc1cc(Nc2ccc(C(=O)N3CCC(N4CCOCC4)CC3)c3c2OCCO3)nc2[nH]cc(C#N)c12 [Example 115, 4-(methylamino)-6-((8-(4-morpholinopiperidine-1-carbonyl)-2,3-dihydrobenzo[b] [1,4]dioxin-5-yl)amino)-1H-pyrrolo[2,3-b]pyridine-3-carbonitrile] | < 100 | 101 to 300 | < 100 | 101 to 300 |
| COc1cc(S(C)(=O)=O)ccc1Nc1cc(NC2CCC2)c2c(C#N)c[nH]c2n1 [Example 120, 4-(cyclobutylamino)-6-((2-methoxy-4-(methylsulfonyl)phenyl)amino)-1H-pyrrolo[2,3-b]pyridine-3-carbonitrile] | 101 to 300 | 301 to 1000 | < 100 | 301 to 1000 |
| COCCNc1cc(Nc2ccc(C(=O)N3CCC(N4CCOCC4)CC3)c3c2OCCO3)nc2[nH]cc(C(F)(F)F)c12 [Example 164, (8-((4-((2-methoxyethyl)amino)-3-(trifluoromethyl)-1H-pyrrolo[2,3-b]pyridin-6-yl)amino)-2,3-dihydrobenzo[b] [1,4]dioxin-5-yl)(4-morpholinopiperidin-1-yl)methanone] | < 100 | < 100 | < 100 | < 100 |
| COc1cc(S(C)(=O)=O)ccc1Nc1cc(NCC(C)C)c2c(C(F)(F)F)c[nH]c2n1 [Example 190, N^4-isobutyl-N^6-(2-methoxy-4-(methylsulfonyl)phenyl)-3-(trifluoromethyl)-1H-pyrrolo[2,3-b]pyridine-4,6-diamine] | 301 to 1000 | 301 to 1000 | 301 to 1000 | 301 to 1000 |
| COCCNc1cc(Nc2ccc(C(=O)N3CCOCC3)c3c2OCCO3)nc2[nH]cc(Cl)c12 [Example 62, (8-((3-chloro-4-((2-methoxyethyl)amino)-1H-pyrrolo[2,3-b]pyridin-6-yl)amino)-2,3-dihydrobenzo[b] [1,4]dioxin-5-yl)(morpholino) methanone] | < 100 | 301 to 1000 | < 100 | 301 to 1000 |
| CNc1cc(Nc2ccc(S(=O)(=O)N3CCOCC3)cc2OC)nc2[nH]cc(Cl)c12 [Example 64, 3-chloro-N^6-(2-methoxy-4-(morpholinosulfonyl)phenyl)-N^4-methyl-1H-pyrrolo[2,3-b]pyridine-4,6-diamine] | 301 to 1000 | 301 to 1000 | 301 to 1000 | 301 to 1000 |
| COc1cc(S(C)(=O)=O)ccc1Nc1cc(NCCS(C)(=O)=O)c2c(C(F)(F)F)c[nH]c2n1 [Example 193, N^6-(2-methoxy-4-(methylsulfonyl)phenyl)-N^4-(2-(methylsulfonyl)ethyl)-3-(trifluoromethyl)-1H-pyrrolo[2,3-b]pyridine-4,6-diamine] | 301 to 1000 | < 100 | 301 to 1000 | < 100 |
| CNc1cc(Nc2ccc(S(C)(=O)=O)cc2OC)nc2[nH]ccc12 [Example 25, N^6-(2-methoxy-4-(methylsulfonyl)phenyl)-N^4-methyl-1H-pyrrolo[2,3-b]pyridine-4,6-diamine] | < 100 | 301 to 1000 | 101 to 300 | 301 to 1000 |
| CCNc1cc(Nc2ccc(S(=O)(=O)N3CCOCC3)cc2OC)nc2[nH]cc(Cl)c12 [Example 65, 3-chloro-N^4-ethyl-N^6-(2-methoxy-4-(morpholinosulfonyl)phenyl)-1H-pyrrolo[2,3-b]pyridine-4,6-diamine] | 301 to 1000 | 301 to 1000 | 101 to 300 | 301 to 1000 |
| N#Cc1c[nH]c2nc(Nc3ccc(C(=O)N4CCOCC4)c4c3OCCO4)cc(NC3CC3)c12 [Example 111, 4-(cyclopropylamino)-6-((8-(morpholine-4-carbonyl)-2,3-dihydrobenzo[b] [1,4]dioxin-5-yl)amino)-1H-pyrrolo[2,3-b]pyridine-3-carbonitrile] | < 100 | 101 to 300 | < 100 | 301 to 1000 |
| O=C(c1ccc(Nc2cc(NC3CC3)c3c(C(F)(F)F)c[nH]c3n2)c2c1OCCO2)N1CCOCC1 [Example 155, (8-((4-(cyclopropylamino)-3-(trifluoromethyl)-1H-pyrrolo[2,3-b]pyridin-6-yl)amino)-2,3-dihydrobenzo[b] [1,4]dioxin-5-yl)(morpholino) methanone 2,2,2-trifluoroacetate] | 101 to 300 | < 100 | < 100 | 301 to 1000 |
